Biological target: T1, hyaluronidase (Bos taurus, UniProt Q2YDK3)
T1 sequence (Q2YDK3 36-553): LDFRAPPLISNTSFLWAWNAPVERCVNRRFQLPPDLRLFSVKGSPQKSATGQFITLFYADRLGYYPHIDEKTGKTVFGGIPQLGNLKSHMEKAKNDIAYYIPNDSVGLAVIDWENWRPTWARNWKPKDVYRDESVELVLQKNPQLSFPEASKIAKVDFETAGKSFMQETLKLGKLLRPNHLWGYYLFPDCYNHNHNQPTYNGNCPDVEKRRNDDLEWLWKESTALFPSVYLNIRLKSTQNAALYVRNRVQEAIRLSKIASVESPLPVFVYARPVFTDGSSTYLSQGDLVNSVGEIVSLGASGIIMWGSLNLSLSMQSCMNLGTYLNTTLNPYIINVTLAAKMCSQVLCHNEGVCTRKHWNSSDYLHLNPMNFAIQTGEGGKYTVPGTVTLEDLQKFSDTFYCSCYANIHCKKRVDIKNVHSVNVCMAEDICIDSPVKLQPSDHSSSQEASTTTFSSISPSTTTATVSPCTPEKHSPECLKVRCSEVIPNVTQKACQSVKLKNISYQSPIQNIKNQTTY
Test: Hyaluronidase activity inhibition of exopolysaccharides
Format: biochemical
Conditions: hyaluronidase enzyme solution (MP Biomedicals), activated with Compound 48/80 and CaCl2, sodium hyaluronate substrate, pH 4.0, 37° C.
Procedure: 5 μL of a hyaluronidase enzyme solution (MP Biomedicals, 4 mg/mL, 100 mM sodium acetate buffer (pH 4.0)) was added to 10 μL of an aqueous solution containing polysaccharides at an optional concentration, which was prepared from the polysaccharide sample containing the neutral polysaccharide fractions and the acidic polysaccharide fractions, the neutral polysaccharide fractions, and the acidic polysaccharide fractions, which were exopolysaccharides produced by the strain IJH-SONE68 and obtained in Example 4. The resultant mixture was incubated at 37° C. for 20 minutes. Thereafter, to the mixture, 10 μL of an enzyme-activating solution (0.5 mg/ml Compound 48/80 (manufactured by MP Biomedicals)), 3.75 mg CaCl2·2H2O, and 100 mM sodium acetate buffer (pH 4.0)) were added, and incubated again at 37° C. for 20 minutes. Subsequently, to the resultant mixture, 25 μL of a sodium hyaluronate solution (Wako Pure Chemical Industries, 0.8 mg/mL, 100 mM sodium acetate buffer (pH 4.0)) was added, and further reacted at 37° C. for 40 minutes. After the reaction, the reaction was terminated by adding 10 μL of 0.4 M NaOH aqueous solution. […] 40 μL of the reaction solution was mixed with 200 μL of p-DMAB solution (described below), the mixture was reacted at 37° C. for 20 minutes, and the absorbance at 585 nm was then measured. […]

## CC1(C)[C@@H](O[C@H]2O[C@H](C(=O)[O-])[C@@H](O)[C@H](O)[C@H]2O[C@@H]2O[C@H](C(=O)[O-])[C@@H](O)[C@H](O)[C@H]2O)CC[C@]2(C)[C@H]3C(=O)C=C4[C@@H]5C[C@@](C)(C(=O)O)CC[C@]5(C)CC[C@@]4(C)[C@]3(C)CC[C@@H]12.[K+].[K+] [Dipotassium glycyrrhizinate]
  IC50 (hyaluronidase activity inhibition): 530 µg/mL

Source: patent publication US20230183388A1, “EXOPOLY[…] LACTIC ACID BACTERIUM AND USE THEREOF” (Asahi Kohsan Corporation, priority 2017, published 2023)
